From paper PMC7866225, “Microwave-Assisted Synthesis of (Piperidin-1-yl)quinolin-3-yl)methylene)hydrazinecarbothioamides as Potent Inhibitors of Cholinesterases: A Biochemical and In Silico Approach” (Molecules, 2021)
“And” between values parts separate entries of the source, which are not always exact repeats. Identical values can stand only once.

Assays:
[1] = target: Acetylcholinesterase (AChE) (Electrophorus electricus, UniProt O42275); assay: biochemical; conditions: Ellman's method, triplicate; read-out: Acetylcholinesterase (AChE) IC50 ± SEM
Procedure: (§1) Modified Ellman’s method was adopted to investigate the inhibitory potential of newly synthesized compounds against cholinesterase enzymes. The assay protocol involved 96-well plates (100 μL per well). Each well contained 20 μL of assay buffer solution, 10 μL of test sample, and 10 μL of 0.5 U/mg of AChE (for AChE inhibition assay) or 10 μL of 3.4 U/mg of BChE (for BChE inhibition assay). This mixture was incubated at 25 °C for 10 min followed by the addition of substrate (10 μL). For AChE inhibition assay, acetylthiocholine iodide (ATCI, 1 mM) while for BChE assay, butyrylthiocholine chloride (BTCCl, 1 mM), was added. This mixture was incubated for 15 min at 37 °C. Ellman reagent (5,5′-dithio-bis(2-nitrobenzoic acid), DTNB, 3 mM) was added. […] Blank assay was also performed. All the analyses were performed in triplicate. IC50 values were also calculated for the synthesized compounds in GraphPad prism 5.0. using nonlinear regression method.

[2] = target: Butyrylcholinesterase (BChE) (Equus caballus, UniProt P81908); assay: biochemical; conditions: Ellman's method, triplicate; read-out: Butyrylcholinesterse (BChE) IC50 ± SEM
Procedure: as §1

HepG2 cells = assay: In vitro cytotoxicity, MTT assay; assay type: cell-based; conditions: HepG2, MTT, 0–1000 µg/mL, 24 h
Procedure: (§2) HepG2 cell line was obtained from the cell culture laboratory established in The University of Lahore. These cell lines were preserved in cryo vials present in liquid nitrogen. Cryo vials were revived for further processing.
(§3) The cryo vials obtained from liquid nitrogen cylinder were thawed. Then HepG2 cells were cultured in the culturing flask in which DMEM-HG along with 10% fetal bovine serum (FBS), supplemented with […] (Sigma) and 100 U/mL streptomycin (Sigma) were added. Cultures were maintained in a humidified incubator supplied with 5% CO2 at 37 °C. Experiments were performed in triplicates. When cultured HepG2 cells achieved 70–80% confluence their subculturing was conducted. For splitting, the cells attached to the walls of the culturing flask were washed with 1× phosphate buffer saline (PBS) and incubated with 0.05% trypsin-EDTA until cells detached from the surface of culturing flask. The detachment of the cells was confirmed by observing the flask under the inverted microscope. A few drops of FBS were added to the flask and mixed well by stirring. The mixture was centrifuged at 2000 rpm for 5 min. After centrifugation the supernatant was removed, and pellet was resuspended. HepG2 cells were cultured onto 96-well plates for measurement of cell viability. Treatment was given for both compounds at a concentration of 0–1000 µg/mL for 24 h.
(§4) After 4 h formazan crystals were solubilized with 10% sodium dodecylsulphate (SDS) (Invitrogen Inc.) and absorbance was taken at 570 nm. Percentage viability was calculated according to the following formula:% Viable cells = ((abs sample − abs blank) / (abs control − abs blank)) × 100 (1) where abs stands for absorbance.

[3] = In vitro cytotoxicity, MTT assay; assay type: cell-based; conditions: human, HepG2 cells, 24 h, control = 100, read-out: Cell Viability; for viability at 24 h, 50 μg/mL: HepG2, 50 μg/mL; for viability at 24 h, 100 μg/mL: HepG2, 100 μg/mL; for viability at 24 h, 200 μg/mL: HepG2, 200 μg/mL; for viability at 24 h, 500 μg/mL: HepG2, 500 μg/mL; for viability at 24 h, 1000 μg/mL: HepG2, 1000 μg/mL
Procedure: as §2, §3, §4

Sequence of Butyrylcholinesterase (BChE) (P81908 whole entry): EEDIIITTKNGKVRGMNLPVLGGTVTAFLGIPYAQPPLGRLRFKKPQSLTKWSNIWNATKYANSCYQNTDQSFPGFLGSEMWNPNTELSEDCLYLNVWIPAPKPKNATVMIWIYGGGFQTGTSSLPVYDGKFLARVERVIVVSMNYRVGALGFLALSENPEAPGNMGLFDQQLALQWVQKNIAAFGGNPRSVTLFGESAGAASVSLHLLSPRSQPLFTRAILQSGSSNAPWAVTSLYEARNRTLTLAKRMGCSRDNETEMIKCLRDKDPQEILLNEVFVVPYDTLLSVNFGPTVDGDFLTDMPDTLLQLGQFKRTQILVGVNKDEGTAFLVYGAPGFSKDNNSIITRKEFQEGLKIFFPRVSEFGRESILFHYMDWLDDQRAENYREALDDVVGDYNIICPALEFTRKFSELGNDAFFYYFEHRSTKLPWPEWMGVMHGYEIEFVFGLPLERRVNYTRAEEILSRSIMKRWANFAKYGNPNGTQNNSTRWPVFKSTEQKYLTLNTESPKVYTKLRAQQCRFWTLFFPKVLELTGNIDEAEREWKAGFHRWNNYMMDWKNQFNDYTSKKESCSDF
Sequence of Acetylcholinesterase (AChE) (O42275 24-633): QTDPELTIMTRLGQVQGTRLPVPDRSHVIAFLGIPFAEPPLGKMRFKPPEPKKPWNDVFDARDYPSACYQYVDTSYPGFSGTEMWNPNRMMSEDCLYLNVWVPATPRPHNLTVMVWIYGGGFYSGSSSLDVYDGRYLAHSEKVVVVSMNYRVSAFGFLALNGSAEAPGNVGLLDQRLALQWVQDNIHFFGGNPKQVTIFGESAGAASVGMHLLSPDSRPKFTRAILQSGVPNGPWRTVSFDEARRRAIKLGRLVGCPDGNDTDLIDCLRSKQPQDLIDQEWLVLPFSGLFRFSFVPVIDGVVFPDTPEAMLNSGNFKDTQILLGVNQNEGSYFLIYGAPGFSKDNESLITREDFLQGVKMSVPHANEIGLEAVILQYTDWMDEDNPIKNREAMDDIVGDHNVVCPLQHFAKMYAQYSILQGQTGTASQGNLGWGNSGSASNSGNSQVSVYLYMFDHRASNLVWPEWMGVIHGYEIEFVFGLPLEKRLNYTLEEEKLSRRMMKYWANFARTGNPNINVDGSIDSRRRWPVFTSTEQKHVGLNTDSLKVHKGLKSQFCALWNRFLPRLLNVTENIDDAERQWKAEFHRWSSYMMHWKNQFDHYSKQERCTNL

| SMILES | IC50 [1] | IC50 [2] | Status (HepG2 cells) | viability at 24 h, 50 μg/mL [3] [%] | viability at 24 h, 100 μg/mL [3] [%] | viability at 24 h, 200 μg/mL [3] [%] | viability at 24 h, 500 μg/mL [3] [%] | viability at 24 h, 1000 μg/mL [3] [%] |
| --- | --- | --- | --- | --- | --- | --- | --- | --- |
| Cc1cccc2cc(C=NNC(=S)Nc3ccc(Cl)cc3)c(N3CCCCC3)nc12 [Compound 6g, N-(4-Chlorophenyl)-2-((8-methyl-2-(piperidin-1-yl)quinolin-3-yl)methylene)hydrazine carbothioamide] | < 20 µM and 13.8 µM | < 20 µM and 18.6 µM | Proliferative | 113 | 106 | 111 | 150 | 214 |
| Cc1ccc2nc(N3CCCCC3)c(C=NNC(=S)Nc3cccc(Cl)c3)cc2c1 [Compound 5f, N-(3-Chlorophenyl)-2-((6-methyl-2-(piperidin-1-yl)quinolin-3-yl)methylene)hydrazine carbothioamide] | 23.9 ± 0.25 µM | 24.6 ± 0.57 µM | Cytotoxic | 84.8 | 94.9 | 93.9 | 93.2 | 56.9 |
| Cc1ccc2nc(N3CCCCC3)c(C=NNC(=S)Nc3c(C)cccc3C)cc2c1 [Compound 5d, N-(2,6-Dimethylphenyl)-2-((6-methyl-2-(piperidin-1-yl)quinolin-3-yl)methylene)hydrazine carbothioamide] | 25.9 ± 0.96 µM | 29.8 ± 1.2 µM | Proliferative | 105 | 108 | 110 | 134 | 131 |
| Cc1cccc2cc(C=NNC(=S)Nc3ccccc3Cl)c(N3CCCCC3)nc12 [Compound 6e, N-(2-Chlorophenyl)-2-((8-methyl-2-(piperidin-1-yl)quinolin-3-yl)methylene)hydrazine carbothioamide] | 32.11 ± 0.15 µM | 37.1 ± 0.59 µM | Proliferative | 102 | 112 | 167 | 180 | 212 |
| Cc1ccc2nc(N3CCCCC3)c(C=NNC(=S)Nc3ccc(Cl)cc3)cc2c1 [Compound 5g, N-(4-Chlorophenyl)-2-((6-methyl-2-(piperidin-1-yl)quinolin-3-yl)methylene)hydrazine carbothioamide] | 19.85 ± 0.14 µM | 23.1 ± 0.11 µM | Proliferative | 84.3 | 96.4 | 94.1 | 122 | 135 |
| Cc1cccc2cc(C=NNC(=S)NCCN3CCOCC3)c(N3CCCCC3)nc12 [Compound 6m, 2-((8-Methyl-2-(piperidin-1-yl)quinolin-3-yl)methylene)-N-(2-morpholinoethyl)hydrazine carbothioamide] | 21 ± 2.3 µM | 35.1 ± 0.77 µM | Cytotoxic | 97.9 | 96.8 | 95.3 | 97.4 | 87.6 |
| Cc1cccc(C)c1NC(=S)NN=Cc1cc2cccc(C)c2nc1N1CCCCC1 [Compound 6d, N-(2,6-Dimethylphenyl)-2-((8-methyl-2-(piperidin-1-yl)quinolin-3-yl)methylene)hydrazine carbothioamide] | < 20 µM and 12.9 µM | < 20 µM and 17.9 µM | Proliferative | 75 | 93.9 | 91.3 | 129 | 173 |
| Cc1ccc2nc(N3CCCCC3)c(C=NNC(=S)NCCN3CCOCC3)cc2c1 [Compound 5m, 2-((6-Methyl-2-(piperidin-1-yl)quinolin-3-yl)methylene)-N-(2-morpholinoethyl)hydrazine carbothioamide] | 62.3 ± 0.68 µM | 59.35 ± 0.13 µM | Non-cytotoxic | 94 | 102 | 109 | 107 | 115 |
| Cc1ccc2nc(N3CCCCC3)c(C=NNC(=S)Nc3ccccc3Cl)cc2c1 [Compound 5e, N-(2-Chlorophenyl)-2-((6-methyl-2-(piperidin-1-yl)quinolin-3-yl)methylene)hydrazine carbothioamide] | 35.2 ± 0.54 µM | 40.26 ± 0.17 µM | Cytotoxic | 94.2 | 97.2 | 158 | 196 | 76.3 |
| Cc1cccc2cc(C=NNC(=S)Nc3cccc(F)c3)c(N3CCCCC3)nc12 [Compound 6i, N-(3-Fluorophenyl)-2-((8-methyl-2-(piperidin-1-yl)quinolin-3-yl)methylene)hydrazine carbothioamide] | 15.8 ± 1.3 µM | 51.11 ± 0.28 µM | Proliferative | 95.5 | 102 | 131 | 112 | 186 |
| Cc1cccc2cc(C=NNC(=S)Nc3ccc(F)cc3)c(N3CCCCC3)nc12 [Compound 6j, N-(4-Fluorophenyl)-2-((8-methyl-2-(piperidin-1-yl)quinolin-3-yl)methylene)hydrazine carbothioamide] | 56.66 ± 0.41 µM | 51 ± 0.52 µM | Non-cytotoxic | 103 | 93.7 | 94.8 | 108 | 114 |
